Data: publication PMC6222871, “Suppression of Hepatitis C Virus Genome Replication and Particle Production by a Novel Diacylglycerol Acyltransferases Inhibitor” (Molecules : A Journal of Synthetic Chemistry and Natural …, 2018)
Where two headings read alike, the source gives them in different places.

Experiments:
recombinant DGAT-1 = system: recombinant DGAT-1; parameters: method as in PMID 23242135; details: recombinant DGAT-1, [14C] oleoyl-CoA as acyl-donor; cited from earlier work
JFH1-NS5A-GFP cells = experiment: NS5A-GFP and Oil Red O imaging in JFH1-NS5A-GFP cells; assay type: cell-based, hepatitis C virus; details: 72 h, dose-dependent
Method: Based on previous results, we noticed that EC50 values required for inhibition of the HCV genome replication by 10j were around 1–2 μM ranges (Figure 2 and Table 3). However, IC50 value required for inhibition of the enzymatic DGAT activities in vitro by 10j was reported to be higher than 5 μM (Table 2 and Figure 6E). Based on these observations, we hypothesized that inhibition of DGATs by 10j may not play a direct role in suppression of the viral genome replication. To test this hypothesis, we decided to study effects of 10j on DGAT and the viral genome replication in a simultaneous manner. […] Then, the viral NS3 protein and LDs were visualized by using an anti-NS3 antibody and BODIPY, respectively. […] Significant reduction of LD was only seen after treatment of 10j higher than 5 μM. In order to confirm this observation, we decided to utilize another HCV-positive cell—JFH1-NS5A-GFP cells—which were infected with infectious HCV genotype 2a particles with a visually tractable NS5A due to the presence of in-frame-fused GFP protein with NS5A. TGs of these cells were stained with ORO for visualization in parallel. […]
Immunofluorescence analysis of Huh7.5-J6/JFH1 or Huh7.5-JFH1-5A-GFP cells in the presence of 10j was conducted as previously described. Fluorescence were examined and captured by Nikon confocal laser scanning microscopic system. LD content was quantified using the ImageJ program.

[1] = system: HCV genotype 2a (Huh7.5-J6/JFH1); experiment: HCV particle production: infectivity of supernatant on naive Huh7.5 cells by real-time RT-PCR; assay type: cell-based, hepatitis C virus; details: for effect on HCV particle production: 10 μM; for EC50: Hepatitis C virus, read-out: EC50 on HCV particle production
Method: A922500, a commercially available DGAT-1-specific inhibitor was used as a positive control [10]. […] Therefore, we decided to examine effects of these twelve DGAT inhibitors on HCV particle production as well as RNA genome replication in parallel. For this purpose, we transfected Huh7.5 cells with in vitro-transcribed genotype 2a HCV RNAs (Huh7.5-J6/JFH1) [16] and treated them with each DGAT inhibitor for 6 and 72 h at 10 μM. HCV genome replication as well as host GAPDH RNA levels was quantitated by a real-time RT-PCR analysis. For assessment of HCV particle production, we harvested and filtered the supernatant from Huh7.5-J6/JFH1 cells treated with DGAT inhibitors and incubated the supernatant with naïve huh7.5 cells for 72 h. Then, infectivity was measured by a real-time RT-PCR analysis.
Huh7.5-J6/JFH-1 cells were seeded into 6-well plates at a density of 3 × 10^5 cells per well with DMEM containing 10% FBS. […] Total RNAs were extracted from treated cells and virus-containing media were harvested at each time point. Naïve Huh7.5 cells were infected with these virus-containing media after concentration with centricons.

DGAT-1 = target: T1, DGAT-1 (Homo sapiens, UniProt O75907); experiment: DGAT-1 in vitro assay, membrane fractions of DGAT-1-transfected 293T cells, NBD-palmitoyl CoA, TLC; assay type: biochemical
T1 construct: expressed in transfected cells; host or cells: 293T cells (membrane fraction)
T1 sequence (O75907 1-488): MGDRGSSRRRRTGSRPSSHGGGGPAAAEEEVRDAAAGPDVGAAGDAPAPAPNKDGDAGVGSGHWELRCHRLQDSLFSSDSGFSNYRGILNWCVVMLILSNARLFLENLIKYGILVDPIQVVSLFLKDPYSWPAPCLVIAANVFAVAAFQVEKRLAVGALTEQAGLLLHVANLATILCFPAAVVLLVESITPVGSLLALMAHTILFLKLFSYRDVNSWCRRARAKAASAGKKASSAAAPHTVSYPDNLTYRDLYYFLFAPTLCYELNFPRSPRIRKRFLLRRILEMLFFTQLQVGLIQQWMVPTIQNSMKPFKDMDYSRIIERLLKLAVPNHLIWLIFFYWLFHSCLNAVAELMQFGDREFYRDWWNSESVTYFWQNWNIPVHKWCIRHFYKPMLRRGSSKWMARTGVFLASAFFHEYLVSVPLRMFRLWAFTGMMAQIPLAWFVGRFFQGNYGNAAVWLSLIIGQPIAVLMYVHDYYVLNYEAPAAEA
Method: pcDNA3.1-DGAT1 plasmid was transfected into 293T cells by using a lipofectamine 2000 transfection reagent (Invitrogen) as described by the manufacturer. At 24 h after transfection, transfected cells were harvested and cells were resuspended with 500 μL of 50 mM Tris-HCL/250 mM sucrose. Resuspended cells were disrupted by 15 passages through a 27-gauge needle and centrifugation at 600× g for 5 min. The supernatant was ultracentrifuged at […] for 30 min and the supernatant was discarded. The pellets were resuspended in a total of 500 μL of 50 mM ice-cold Tris-HCl/250 mM sucrose. Then, a master mix containing 20 μL of 1 M-Tris-HCl, 4 μL of 1 M MgCl2, 10 μL of 4 mM DOG in acetone, 10 μL of 12 mg/mL BSA and 10 μL of 500 μM NBD-palmitoyl CoA in 20 mM Tris was prepared and incubated at 37 °C for 2 min. Also, 50 μg total membrane proteins were incubated with 10j and A922500 at 37 °C for 1 h. Extracted proteins were added into master mix and incubated at 37 °C for 10 min. The reaction was terminated by adding 4 mL CHCl3/methanol (2:1, v/v). Samples were mixed by vortexing and 800 μL of water was added and remixed. Samples were allowed to sit at room temperature for 1 h. […] Plate was allowed to air dry for 1 h before quantification of reaction products. The synthesized TG was determined by the ChemiDoc imaging system (Bio-Rad, Hércules, CA, USA).

O=C(NCc1ccco1)c1ccc2[nH]c(COc3ccc(C45CC6CC(CC(C6)C4)C5)cc3)nc2c1 [10j, 2-{[4-(adamant-1yl)phenoxy]methyl)-N-(furan-2-ylmethyl)-1H-benzo[d]imidazole-5-carboxamide]
IC50 (recombinant DGAT-1): 9 µM
concentration at which reduction of NS5A-GFP expression starts (JFH1-NS5A-GFP cells): 5 µM
effect on HCV particle production ([1]; 6 h (Figure 1B)): able to block HCV particle production
effect on HCV particle production ([1]; 72 h (Figure 1D)): able to block both viral RNA genome replication and particle production
EC50 ([1]; Huh7.5, 3 h): 1 µM
EC50 ([1]; Huh7.5, 6 h): 1.7 µM
EC50 ([1]; Huh7.5, 12 h): 0.4 µM
EC50 ([1]; Huh7.5, 24 h): 0.4 µM
EC50 ([1]; Huh7.5, 48 h): 0.7 µM
EC50 ([1]; Huh7.5, 72 h): 0.2 µM
IC50 (DGAT-1; DGAT-1 membrane fractions from 293T cells, read-out: IC50, in vitro synthesis of TG by DGAT-1): 17.4 µM
IC50 (DGAT-1; Table 2 and Figure 6E, read-out: IC50 required for inhibition of the enzymatic DGAT activities in vitro (summary)): > 5 µM
